Results from ChEMBL document CHEMBL1126370, “Neuropeptide Y (NPY) functional group mimetics: design, synthesis, and characterization as NPY receptor antagonists” (Bioorg Med Chem Lett, 1992).

Experiments:
[1] = The receptor binding activity was evaluated as the displacement of specifically bound [3H]-NPY from male Sprague-Dawley rat brain membrane homogenates; format: tissue-based
[2] = Inhibition constant to displace [3H]-NPY from rat brain membrane after treatment with 500 evaluated; format: tissue-based
[3] = Percent maximum displacement of the [3H]NPY by the compound in the rat brain membrane was evaluated; format: cell membranes
Rattus norvegicus = organism: Rattus norvegicus; assay: Inhibitory concentration was evaluated against the vasoconstriction induced by NPY in the rat femoral artery ring; format: functional
[4] = The receptor binding activity as the displacement of specifically bound [3H]-NPY from male Sprague-Dawley rat brain membrane homogenates; format: tissue-based

N/C(=N\CCNC(=O)C(N)Cc1ccc(OCc2c(Cl)cccc2Cl)cc1)NCCCCCCN/C(N)=N/CCNC(=O)C(N)Cc1ccc(OCc2c(Cl)cccc2Cl)cc1 (stereo not given)
IC50 [1]: 45.4 µM
Ki [2]: 35.5 µM
Max displacement [3]: 100%
IC50 (Rattus norvegicus): 2.86 µM

N/C(=N\CCNC(=O)C(N)Cc1ccc(OCc2c(Cl)cccc2Cl)cc1)NCCSSCCN/C(N)=N/CCNC(=O)C(N)Cc1ccc(OCc2c(Cl)cccc2Cl)cc1 (stereo not given)
IC50 [1]: 18.5 µM
Max displacement [3]: 63%
IC50 (Rattus norvegicus): 0.414 µM

COc1ccccc1CNCCCCCCNCCSSCCNCCCCCCNCc1ccccc1OC [BENEXTRAMINE]
IC50 [4]: 56 µM
Max displacement [3]: 61%
IC50 (Rattus norvegicus): 0.0431 µM
